ChEMBL document CHEMBL4665834 (J Med Chem, 2020)
≈ marks a conversion by molar mass, not a printed value.

Key:
[1] = Apparent permeability in human Caco-2 cells measured after 2 hrs by HPLC analysis; type: ADME, cell-based
[2] = Volume of distribution at steady state in Balb/c mouse at 1 mg/kg, iv administered as bolus dose or 3 mg/kg, po administered via gavage by LC-MS/MS analysis; type: ADME, organism-based; conditions: in vivo, read-out: Vdss
[3] = Terminal half life in Balb/c mouse at 1 mg/kg, iv administered as bolus dose by LC-MS/MS analysis; type: ADME, organism-based; conditions: in vivo, read-out: beta t1/2 (converted)
[4] = Protein binding in pooled rat plasma assessed as unbound fraction incubated for 6 hrs by LC-MS/MS analysis based equilibrium dialysis method; type: ADME, cell-free
Prostacyclin receptor = Prostacyclin receptor (Homo sapiens, UniProt P43119); test: Displacement of [3H]PGD2 from full-length recombinant human IP receptor expressed in HEK293 cell membranes measured after 60 mins by scintillation counting method
Sequence of Prostacyclin receptor (P43119 whole entry): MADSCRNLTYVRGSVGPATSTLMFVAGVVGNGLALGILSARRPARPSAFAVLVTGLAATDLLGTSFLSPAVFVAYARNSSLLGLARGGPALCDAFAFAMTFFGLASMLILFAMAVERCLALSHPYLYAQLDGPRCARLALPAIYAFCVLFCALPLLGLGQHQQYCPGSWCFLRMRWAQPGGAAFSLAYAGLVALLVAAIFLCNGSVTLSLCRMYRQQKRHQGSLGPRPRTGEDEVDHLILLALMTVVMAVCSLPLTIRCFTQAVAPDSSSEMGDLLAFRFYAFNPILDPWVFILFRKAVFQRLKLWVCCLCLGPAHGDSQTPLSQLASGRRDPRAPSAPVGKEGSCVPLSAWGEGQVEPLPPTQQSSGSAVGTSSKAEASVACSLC

[5] = biological target: Prostaglandin E2 receptor EP1 subtype (Homo sapiens, UniProt P34995); test: Displacement of [3H]prostaglandin E2 from full-length recombinant human EP1 receptor expressed in HEK293 cell membranes measured after 60 mins by scintillation counting method
Sequence of Prostaglandin E2 receptor EP1 subtype (P34995 whole entry): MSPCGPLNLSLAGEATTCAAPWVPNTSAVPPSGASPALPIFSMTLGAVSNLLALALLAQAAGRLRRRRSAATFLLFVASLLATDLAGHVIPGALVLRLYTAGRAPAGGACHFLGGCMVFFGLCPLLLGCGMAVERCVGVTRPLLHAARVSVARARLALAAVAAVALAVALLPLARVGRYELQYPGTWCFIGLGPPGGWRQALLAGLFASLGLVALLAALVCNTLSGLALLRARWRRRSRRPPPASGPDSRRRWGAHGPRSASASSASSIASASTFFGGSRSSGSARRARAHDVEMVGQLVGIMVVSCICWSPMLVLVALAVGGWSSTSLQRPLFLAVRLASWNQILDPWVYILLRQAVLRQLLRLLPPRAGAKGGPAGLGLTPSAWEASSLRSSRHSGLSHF

[6] = Protein binding in pooled human plasma assessed as unbound fraction incubated for 6 hrs by LC-MS/MS analysis based equilibrium dialysis method; type: ADME, cell-free
[7] = Volume of distribution at steady state in Beagle dog at 0.5 mg/kg, iv administered as 15 mins infusion or 1 mg/kg, po administered via gavage by LC-MS/MS analysis; type: ADME, organism-based, Canis lupus familiaris; conditions: in vivo, read-out: Vdss
[8] = Solubility of compound in 0.1 M HCl using crystalline form of sample; type: physicochemical
[9] = Solubility of compound in water using crystalline form of sample; type: physicochemical
[10] = biological target: Prostaglandin E2 receptor EP3 subtype (Homo sapiens, UniProt P43115); test: Displacement of [3H]prostaglandin E2 from full-length recombinant human EP3 receptor expressed in HEK293 cell membranes measured after 120 mins by scintillation counting method
Sequence of Prostaglandin E2 receptor EP3 subtype (P43115 whole entry): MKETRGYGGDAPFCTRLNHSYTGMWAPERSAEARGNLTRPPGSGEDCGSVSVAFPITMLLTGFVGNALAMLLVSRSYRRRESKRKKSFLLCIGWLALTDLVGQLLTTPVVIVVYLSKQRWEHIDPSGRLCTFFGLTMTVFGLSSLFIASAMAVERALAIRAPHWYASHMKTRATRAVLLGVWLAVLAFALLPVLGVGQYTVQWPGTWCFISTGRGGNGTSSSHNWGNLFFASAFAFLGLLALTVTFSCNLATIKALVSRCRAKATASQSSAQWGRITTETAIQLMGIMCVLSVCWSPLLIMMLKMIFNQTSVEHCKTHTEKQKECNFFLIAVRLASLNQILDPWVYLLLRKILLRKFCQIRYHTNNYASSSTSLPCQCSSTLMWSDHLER

[11] = Drug metabolism in rat hepatocytes assessed as formation of hydroxylated and ring-opened pyrrolidine derivative at 1 uM measured after 1 to 4 hrs by LC-MS/MS analysis; type: ADME, cell-based, Hepatocyte; conditions: time 1-4 hrs
[12] = biological target: Prostaglandin F2-alpha receptor (Rattus norvegicus, UniProt P43118); test: Antagonist activity at FPR in Wistar rat assessed as inhibition of PGF2alpha-induced uterus contraction; type: tissue-based
Sequence of Prostaglandin F2-alpha receptor (Rattus norvegicus, UniProt P43118) (P43118 whole entry): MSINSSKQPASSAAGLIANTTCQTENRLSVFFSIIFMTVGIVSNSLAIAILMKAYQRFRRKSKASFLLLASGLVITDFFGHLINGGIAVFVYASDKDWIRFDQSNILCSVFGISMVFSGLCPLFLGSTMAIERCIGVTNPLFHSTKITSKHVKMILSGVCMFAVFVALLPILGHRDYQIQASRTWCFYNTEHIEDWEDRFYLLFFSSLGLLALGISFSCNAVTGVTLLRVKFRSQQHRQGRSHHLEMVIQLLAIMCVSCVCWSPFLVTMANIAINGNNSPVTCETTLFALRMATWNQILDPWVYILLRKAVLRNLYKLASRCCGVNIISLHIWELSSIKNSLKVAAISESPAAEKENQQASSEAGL

Cytochrome P450 1A2 = Cytochrome P450 1A2 (Homo sapiens, UniProt P05177); test: Inhibition of CYP1A2 in human liver microsomes using phenacetin as substrate incubated for 15 mins in presence of NADPH generating system by LC-MS/MS analysis; type: ADME
Cytochrome P450 2C8 = Cytochrome P450 2C8 (Homo sapiens, UniProt P10632); test: Inhibition of CYP2C8 in human liver microsomes using amodiaquine as substrate incubated for 15 mins in presence of NADPH generating system by LC-MS/MS analysis; type: ADME
Sequence of Cytochrome P450 2C8 (P10632 whole entry): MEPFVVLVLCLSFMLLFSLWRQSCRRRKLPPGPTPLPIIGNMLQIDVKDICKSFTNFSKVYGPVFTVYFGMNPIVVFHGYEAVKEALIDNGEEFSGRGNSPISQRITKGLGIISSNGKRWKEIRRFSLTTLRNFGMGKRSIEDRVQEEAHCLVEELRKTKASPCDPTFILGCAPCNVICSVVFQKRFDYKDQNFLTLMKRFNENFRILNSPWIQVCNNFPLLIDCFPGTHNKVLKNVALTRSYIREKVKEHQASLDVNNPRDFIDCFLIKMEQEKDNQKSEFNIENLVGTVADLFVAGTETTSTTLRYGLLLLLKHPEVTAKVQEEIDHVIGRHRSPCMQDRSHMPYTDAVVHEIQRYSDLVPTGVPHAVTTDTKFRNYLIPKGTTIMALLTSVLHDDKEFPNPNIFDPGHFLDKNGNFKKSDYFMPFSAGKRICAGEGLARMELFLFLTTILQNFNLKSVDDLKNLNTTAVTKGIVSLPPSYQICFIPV

[13] = Clearance in Balb/c mouse at 1 mg/kg, iv administered as bolus dose or 3 mg/kg, po administered via gavage by LC-MS/MS analysis; type: ADME, organism-based; conditions: in vivo
Cytochrome P450 2C9 = Cytochrome P450 2C9 (Homo sapiens, UniProt P11712); test: Inhibition of CYP2C9 in human liver microsomes using diclofenac as substrate incubated for 15 mins in presence of NADPH generating system by LC-MS/MS analysis; type: ADME
Sequence of Cytochrome P450 2C9 (P11712 whole entry): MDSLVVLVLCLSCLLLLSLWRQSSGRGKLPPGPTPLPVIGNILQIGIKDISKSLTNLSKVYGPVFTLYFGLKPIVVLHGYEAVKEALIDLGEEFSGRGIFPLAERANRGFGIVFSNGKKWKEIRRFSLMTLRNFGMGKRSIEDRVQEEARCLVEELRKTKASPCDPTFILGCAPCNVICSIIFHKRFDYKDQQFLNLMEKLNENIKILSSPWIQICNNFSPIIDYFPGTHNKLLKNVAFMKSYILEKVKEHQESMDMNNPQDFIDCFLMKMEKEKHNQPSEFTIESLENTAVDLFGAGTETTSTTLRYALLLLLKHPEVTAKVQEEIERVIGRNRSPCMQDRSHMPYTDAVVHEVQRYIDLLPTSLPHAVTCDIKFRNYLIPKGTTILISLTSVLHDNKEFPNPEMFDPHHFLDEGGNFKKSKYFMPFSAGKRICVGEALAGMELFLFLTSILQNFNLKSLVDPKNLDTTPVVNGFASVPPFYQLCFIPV

[14] = Clearance in Wistar rat at 1 mg/kg, iv administered as bolus dose or 3 mg/kg, po administered via gavage by LC-MS/MS analysis; type: ADME, organism-based; conditions: in vivo
[15] = Volume of distribution at steady state in Wistar rat at 1 mg/kg, iv administered as bolus dose or 3 mg/kg, po administered via gavage by LC-MS/MS analysis; type: ADME, organism-based; conditions: in vivo, read-out: Vdss
[16] = Oral bioavailability in Balb/c mouse at 3 mg/kg administered via gavage by LC-MS/MS analysis; type: ADME, organism-based; conditions: in vivo
[17] = Oral bioavailability in Wistar rat at 3 mg/kg administered via gavage by LC-MS/MS analysis; type: ADME, organism-based; conditions: in vivo
[18] = biological target: T1, Prostaglandin F2-alpha receptor (Mus musculus, UniProt P43117); test: Antagonist activity at FPR in mouse NIH3T3 cells assessed as inhibition of PGF2alpha-induced MCP1 production measured after 24 hrs by Bio-Rad assay; type: cell-based
T1 sequence (P43117 whole entry): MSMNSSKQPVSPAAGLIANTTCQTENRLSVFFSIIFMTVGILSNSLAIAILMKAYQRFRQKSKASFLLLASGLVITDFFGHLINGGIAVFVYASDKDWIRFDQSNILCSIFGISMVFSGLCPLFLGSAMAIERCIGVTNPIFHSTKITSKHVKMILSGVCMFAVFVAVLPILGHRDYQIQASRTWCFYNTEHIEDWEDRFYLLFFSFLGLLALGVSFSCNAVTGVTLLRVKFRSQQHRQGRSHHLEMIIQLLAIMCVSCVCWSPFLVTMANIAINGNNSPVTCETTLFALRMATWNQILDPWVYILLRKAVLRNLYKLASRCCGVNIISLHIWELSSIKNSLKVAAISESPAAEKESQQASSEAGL

[19] = Toxicity in Wistar rat up to 300 mg/kg/day, po administered for 14 days; type: organism-based; conditions: in vivo, 336 h, time 14 day
[20] = Drug metabolism in human hepatocytes assessed as oxidation at the pyrrolidine ring at 1 uM measured after 1 to 4 hrs by LC-MS/MS analysis; type: ADME, cell-based, Hepatocyte; conditions: time 1-4 hrs
[21] = Drug metabolism in dog hepatocytes assessed as glucuronidation at 1 uM measured after 1 to 4 hrs by LC-MS/MS analysis; type: ADME, cell-based, Canis lupus familiaris, Hepatocyte; conditions: time 1-4 hrs
[22] = Drug metabolism in human hepatocytes assessed as formation of hydroxylated and ring-opened pyrrolidine derivative at 1 uM measured after 1 to 4 hrs by LC-MS/MS analysis; type: ADME, cell-based, Hepatocyte; conditions: time 1-4 hrs
[23] = Maximum oral bioavailability in dog hepatocytes based well stirred liver model at 1 uM measured after 2 to 90 mins by LC-MS/MS analysis; type: ADME, Canis lupus familiaris, Hepatocyte; conditions: time 2-90 min, read-out: Fmax
[24] = Terminal half life in Wistar rat at 1 mg/kg, iv administered as bolus dose by LC-MS/MS analysis; type: ADME, organism-based; conditions: in vivo, read-out: beta t1/2 (converted)
[25] = Oral bioavailability in Wistar rat at 1 to 3 mg/kg administered via gavage using EtOH/PEG400/H2O 10/40/50 formulation by LC-MS/MS analysis; type: ADME, organism-based; conditions: in vivo, dose 1-3 mg/kg
Thromboxane A2 receptor = Thromboxane A2 receptor (Homo sapiens, UniProt P21731); test: Antagonist activity at recombinant full-length human TP receptor expressed in HEK293 cells assessed as inhibition of U-44069-induced response measured after 30 mins by TR-FRET assay; type: cell-based
Sequence of Thromboxane A2 receptor (P21731 whole entry): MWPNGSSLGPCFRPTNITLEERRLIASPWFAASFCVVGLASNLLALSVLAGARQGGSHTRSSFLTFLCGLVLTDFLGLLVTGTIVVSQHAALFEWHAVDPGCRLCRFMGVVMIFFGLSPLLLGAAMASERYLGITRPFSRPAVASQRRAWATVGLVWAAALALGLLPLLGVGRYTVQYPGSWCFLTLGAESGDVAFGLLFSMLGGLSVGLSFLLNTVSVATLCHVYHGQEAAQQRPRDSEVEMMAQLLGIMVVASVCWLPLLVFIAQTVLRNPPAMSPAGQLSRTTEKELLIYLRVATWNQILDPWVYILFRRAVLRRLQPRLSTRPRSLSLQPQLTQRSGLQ

Cytochrome P450 2D6 = Cytochrome P450 2D6 (Homo sapiens, UniProt P10635); test: Inhibition of CYP2D6 in human liver microsomes using dextromethorphan as substrate incubated for 15 mins in presence of NADPH generating system by LC-MS/MS analysis; type: ADME
Sequence of Cytochrome P450 2D6 (P10635 whole entry): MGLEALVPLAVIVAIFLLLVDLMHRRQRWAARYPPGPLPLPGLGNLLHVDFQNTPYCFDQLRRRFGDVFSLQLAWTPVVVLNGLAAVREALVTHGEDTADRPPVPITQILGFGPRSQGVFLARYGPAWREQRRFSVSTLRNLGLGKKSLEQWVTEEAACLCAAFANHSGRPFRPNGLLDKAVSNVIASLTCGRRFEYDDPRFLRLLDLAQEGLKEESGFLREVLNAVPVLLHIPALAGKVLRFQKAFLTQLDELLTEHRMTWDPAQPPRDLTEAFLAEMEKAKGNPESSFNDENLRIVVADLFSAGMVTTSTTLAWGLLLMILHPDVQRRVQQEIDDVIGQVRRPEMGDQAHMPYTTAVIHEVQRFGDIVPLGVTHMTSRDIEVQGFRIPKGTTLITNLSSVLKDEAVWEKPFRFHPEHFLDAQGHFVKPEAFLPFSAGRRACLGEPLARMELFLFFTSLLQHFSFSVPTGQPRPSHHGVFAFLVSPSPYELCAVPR

[26] = Solubility of compound in phosphate buffer at pH 8 using crystalline form of sample; type: physicochemical
[27] = biological target: Prostaglandin E2 receptor EP2 subtype (Homo sapiens, UniProt P43116); test: Displacement of [3H]prostaglandin E2 from full-length recombinant human EP2 receptor expressed in HEK293 cell membranes measured after 120 mins by scintillation counting method
Sequence of Prostaglandin E2 receptor EP2 subtype (P43116 whole entry): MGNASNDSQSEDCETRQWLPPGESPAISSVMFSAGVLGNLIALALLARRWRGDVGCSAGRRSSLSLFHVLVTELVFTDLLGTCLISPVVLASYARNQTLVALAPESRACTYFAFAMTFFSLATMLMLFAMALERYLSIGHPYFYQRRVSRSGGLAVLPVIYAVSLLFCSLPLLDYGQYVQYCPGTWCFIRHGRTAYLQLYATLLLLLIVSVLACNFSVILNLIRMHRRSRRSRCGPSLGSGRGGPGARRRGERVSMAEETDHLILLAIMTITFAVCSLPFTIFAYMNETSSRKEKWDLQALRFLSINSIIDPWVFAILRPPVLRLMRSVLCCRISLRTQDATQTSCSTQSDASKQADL

[28] = Lipophilicity, log D of compound at pH 7.5 by HPLC analysis; conditions: buffer
[29] = Toxicity in Beagle dog up to 1 g/kg/day, po administered for 14 days; type: organism-based, Canis lupus familiaris; conditions: in vivo, 1000 mg/kg, 336 h, time 14 day
[30] = biological target: T1, Prostaglandin F2-alpha receptor; test: Antagonist activity at FPR in mouse NIH3T3 cells assessed as inhibition of PGF2alpha-induced cytokine induced neutrophil attracting chemokine production measured after 24 hrs by Bio-Rad assay; type: cell-based
Cytochrome P450 3A4 = Cytochrome P450 3A4 (Homo sapiens, UniProt P08684); test: Inhibition of CYP3A4 in human liver microsomes using midazolam as substrate incubated for 10 mins in presence of NADPH generating system by LC-MS/MS analysis
Sequence of Cytochrome P450 3A4 (P08684 whole entry): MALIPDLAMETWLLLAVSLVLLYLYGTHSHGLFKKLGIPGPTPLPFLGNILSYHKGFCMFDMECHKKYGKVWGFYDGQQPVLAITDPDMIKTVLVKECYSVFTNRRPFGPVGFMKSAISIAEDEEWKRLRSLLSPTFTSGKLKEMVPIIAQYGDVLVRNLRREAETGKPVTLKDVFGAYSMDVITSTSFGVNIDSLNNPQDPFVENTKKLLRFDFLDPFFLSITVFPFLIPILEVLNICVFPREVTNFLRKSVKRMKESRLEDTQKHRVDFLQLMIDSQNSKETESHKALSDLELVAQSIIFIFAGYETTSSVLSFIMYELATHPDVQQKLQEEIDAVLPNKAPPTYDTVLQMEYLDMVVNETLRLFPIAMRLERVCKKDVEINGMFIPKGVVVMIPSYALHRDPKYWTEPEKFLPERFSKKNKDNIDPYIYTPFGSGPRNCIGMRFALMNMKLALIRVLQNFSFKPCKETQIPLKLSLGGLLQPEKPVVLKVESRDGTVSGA

Papp at 2 h [1]: 26.7 ×10⁻⁶ cm/s | Vd [2]: 2 L/kg | half-life [3]: 3.4 h | fraction unbound at 6 h [4]: < 0.01 | IC50 (Prostacyclin receptor): > 10 µM | IC50 [5]: > 10 µM | fraction unbound at 6 h [6]: < 0.01 | Vd [7]: 1.8 L/kg | solubility [8]: 440 µg/mL (≈ 808 µM) | solubility [9]: < 1 µg/mL | IC50 [10]: > 10 µM | Drug metabolism [11]: Metabolite_Detected | IC50 [12]: 0.052 µM | IC50 (Cytochrome P450 1A2): > 20 µM | IC50 (Cytochrome P450 2C8): > 20 µM | clearance [13]: 18.3 mL/min/kg | IC50 (Cytochrome P450 2C9): > 20 µM | clearance [14]: 11.7 mL/min/kg | Vd [15]: 2.1 L/kg | bioavailability [16]: 94% | bioavailability [17]: 91% | IC50 [18]: 0.018 µM | Drug metabolism [20]: Metabolite_Detected | Drug metabolism [21]: Metabolite_Detected | Drug metabolism [22]: Metabolite_Detected | Fh at 1 µM [23]: 18% | half-life [24]: 3.8 h | bioavailability [25]: 91% | IC50 (Thromboxane A2 receptor): 2.2 µM | IC50 (Cytochrome P450 2D6): > 20 µM | solubility thermodynamic [26]: 290 µg/mL (≈ 532 µM) | IC50 [27]: > 10 µM | logD [28]: 2.3 | IC50 [30]: 0.012 µM | IC50 (Cytochrome P450 3A4): > 20 µM
SMILES: Cc1c(N2CCCC2)nc2ccc(Br)cc2c1C(=O)NC[C@H](CCC(=O)O)c1ccccc1Cl [BAY-6672]
Activity [19]: Non-Toxic | Activity [29]: Non-Toxic
